# Test results: patent US11629333B2, “Gamma delta T cells and a method of augmenting the tumoricidal activity of the same” (Agency for Science, Technology and Research, priority 2017, dated 2023)
# How the values were obtained:
# Human PBMCs = experiment: Expansion of Vγ9Vδ2 T cells from PBMCs, cell frequencies by flow cytometry; type: cell-based
# Excerpt: FIGS. 1A to 1D (collectively referred to as “FIG. 1”) show the characterization of the cells expanded with Zometa, OKT3 and gamma-irradiated K562 aAPCs. Human PBMCs were first expanded with Zometa for 7 days, followed by treatment with Zometa, OKT3 and gamma-irradiated K562 aAPCs for another 10 days. Frequencies of Vγ9Vδ2 T cells (FIG. 1A), NKG2D-positive cells (FIG. 1B), CD3-positive alpha beta T cells (FIG. 1C) and CD3-negative, CD56-positive NK cells (FIG. 1D) in PBMCs, on day 7 and day 17 analyzed by flow cytometry are shown. PBMC samples from 7 donors were tested and each sample is represented by one line.
# Human PBMC were isolated from fresh buffy coat of healthy donors by density gradient centrifugation using Ficoll-Paque (GE Healthcare, Milwaukee, Wis.). Human myelogenous leukemia cell line K562 (ATCC) and a K562-based aAPC cell line genetically engineered for stable expression of EGFP, CD86, CD64 and 4-1BBL (Du et al., 2016) were cultured in IMDM (Lonza Biotech, Basel, Switzerland) supplemented with 10% FBS. Other tumor cell lines used in the present invention were cultured in DMEM supplemented with 10% FBS.
# (§1) For Vγ9Vδ2 T cell activation and expansion, PBMCs were seeded at a density of 2E6 cells/ml in AIM-V (Life Technologies) supplemented with 5% human AB serum (Valley Biomedical, Winchester, Va.). Zometa (5 μM, Sigma Aldrich, St. Louis, Mo.) and IL-2 (300 IU/ml) were added on day 0, followed by adding 50 ng/ml anti-CD3 antibody (OKT3 clone, eBioscience, San Diego, Calif.), gamma irradiated K562 aAPCs at a 100:1 ratio, 300 IU/ml IL-2, and 5 μM Zometa from day 7 onwards. […] The culture medium was refreshed every 2 to 3 days. In other words, the cells were passaged every 2 to 3 days.
# [1] = system: CTLA-4, PD1, LAG3, TIGIT, TIM3, and BTLA; experiment: Expression of co-inhibitory receptors on PBMCs and expanded cells by flow cytometry; type: cell-based, human
# Excerpt: FIGS. 2A to 2F (collectively referred to as “FIG. 2”) show the expression of co-inhibitory receptors CTLA-4 (FIG. 2A), PD-1 (FIG. 2B), LAG-3 (FIG. 2C), TIGIT (FIG. 2D), TIM-3 (FIG. 2E) and BTLA (FIG. 2F) on PBMCs and the expanded cells. Human PBMCs were first expanded with Zometa for 7 days, followed by treatment with Zometa, OKT3 and gamma-irradiated K562 aAPCs for another 10 days. The expression frequencies of 6 co-inhibitory receptors on PBMCs and on the expanded cells collected on day 7 and day 17 analyzed by flow cytometry are shown. PBMC samples from 7 donors were tested and each sample is represented by one line.
# as §1
# In view of the important roles of co-inhibitory receptors in cancer therapy, the expression of six of them, namely, CTLA-4, PD1, LAG3, TIGIT, TIM3, and BTLA, on the Zometa-expanded Vγ9Vδ2 T cells was examined using flow cytometry (FIG. 2).
# [2] = system: SW480 human colon carcinoma cells, HepG2 human hepatocarcinoma cells, U87 human glioblastoma cells and SKOV3 human ovarian cancer cells; experiment: Delfia EuTDA cytotoxicity assay, tumor cells with or without Zometa pre-treatment; type: cell-based; settings: 1 μM Zometa pre-treatment of tumor cells
# Description: Target tumor cells tested were SW480 human colon carcinoma, HepG2 human hepatocarcinoma cells, U87 human glioblastoma cells and SKOV3 human ovarian cancer cells. Tumor cells were either pre-treated with 1 μM Zometa or without Zometa treatment. Effector used are indicated. Delfia EuTDA cytotoxicity assay (3 hours EuTDA culturing) was used to assess tumor cell lysis efficiency at an effector to target ratio of 10:1. The results of one representative experiment out of three are shown.
# The cytolytic activity of CAR-modified Vγ9Vδ2 T cells was examined with a non-radioactive method (DELFIA EuTDA Cytotoxicity Reagents kit, PerkinElmer, MA). Time-resolved fluorescence was measured in Victor3 multilabel plate counter (PerkinElmer). The effector to target (E:T) ratios used ranged from 20:1 to 2.5:1. Control groups were set up to measure spontaneous release (only target cells added), maximum release (target cells added with 10 μl lysis buffer), and medium background (no cell added). Killing efficacy was calculated by using the following formula: […]
# Zometa treatment was used because Zometa can increase intracellular levels of IPP, thereby increasing the sensitivity of tumor cells to Vγ9Vδ2 T cells.
# [3] = PBMCs treated with Zometa, day 7
# [4] = 7 days after Zometa treatment, all 7 samples
smiles,measurement,setting,value
"O=P(O)(O)C(O)(Cn1ccnc1)P(=O)(O)O [Zometa, zoledronic acid]",NKG2D-positive cell population,"Human PBMCs; PBMCs treated with 5 μM Zometa, day 0 to day 7",increase
same,Vγ9Vδ2 T-cell population,"Human PBMCs; PBMCs treated with 5 μM Zometa, day 7",~90%
same,proportion of NK cells,Human PBMCs; [3],less than 3%
same,proportion of αβ T cells,Human PBMCs; [3],less than 10%
same,CTLA-4-expressing cells,[1]; [4],significant increase
same,LAG3-expressing cells,[1]; [4],significant increase
same,TIGIT-expressing cells,[1]; [4],significant increase
same,TIM3-expressing cells,[1]; [4],significant increase
same,frequency of PD1-positive cells,"[1]; 7 days after Zometa treatment, remaining samples (one sample increased, one decreased)",minor increase or no change
same,BTLA expression,[1]; Zometa treatment for 7 days,reduced
same,sensitivity of HepG2 cells towards Vγ9Vδ2 T cells,[2]; HepG2,not
same,sensitivity of SKOV3 cells towards Vγ9Vδ2 T cells,[2]; SKOV3,significantly increased
same,sensitivity of SW480 cells towards Vγ9Vδ2 T cells,[2]; SW480,significantly increased
same,sensitivity of U87 cells towards Vγ9Vδ2 T cells,[2]; U87,significantly increased
